From PubChem BioAssay (NCI)
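Exposure lasted 48 hours, with cells grown in 96-well plates and compounds tested at five concentrations. TGI is the concentration that stops growth completely.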

What was measured:
Assay in all cases: NCI anticancer screen, dose series, 48 h
[1] = tested on: SN12C renal
[2] = tested on: OVCAR-5 ovarian
[3] = tested on: CCRF-CEM leukemia
[4] = tested on: DMS 114 small cell lung
[5] = tested on: SW-620 colon
[6] = tested on: MOLT-4 leukemia
[7] = tested on: DLD-1 colon
[8] = tested on: ACHN renal
[9] = tested on: SK-OV-3 ovarian
[10] = tested on: HOP-92 NSCLC
[11] = tested on: UO-31 renal
[12] = tested on: 786-0 renal
[13] = tested on: SNB-78 CNS
[14] = tested on: NCI-H226 lung
[15] = tested on: NCI-H23 lung
[16] = tested on: OVCAR-4 ovarian
[17] = tested on: UACC-257 melanoma
[18] = tested on: DMS 273 small cell lung
[19] = tested on: IGROV1 ovarian
[20] = tested on: K-562 leukemia
[21] = tested on: OVCAR-8 ovarian
[22] = tested on: M14 melanoma
[23] = tested on: HT29 colon
[24] = tested on: TK-10 renal
[25] = tested on: RPMI-8226 leukemia
[26] = tested on: SNB-19 CNS
[27] = tested on: SK-MEL-28 melanoma
[28] = tested on: LXFL 529 NSCLC
[29] = tested on: SF-268 CNS
[30] = tested on: SK-MEL-2 melanoma
[31] = tested on: M19-MEL melanoma
[32] = tested on: XF 498 CNS
[33] = tested on: HCC-2998 colon
[34] = tested on: UACC-62 melanoma
[35] = tested on: SNB-75 CNS
[36] = tested on: A498 renal
[37] = tested on: KM12 colon
[38] = tested on: HL-60(TB) leukemia
[39] = tested on: NCI-H460 lung
[40] = tested on: OVCAR-3 ovarian
[41] = tested on: SF-295 CNS
[42] = tested on: RXF 393 renal
[43] = tested on: COLO 205 colon
[44] = tested on: EKVX NSCLC
[45] = tested on: MALME-3M melanoma
[46] = tested on: SK-MEL-5 melanoma
[47] = tested on: U251 CNS
[48] = tested on: LOX IMVI melanoma
[49] = tested on: SR leukemia
[50] = tested on: SF-539 CNS
[51] = tested on: HCT-116 colon
[52] = tested on: HCT-15 colon
[53] = tested on: A549 NSCLC
[54] = tested on: NCI-H522 lung
[55] = tested on: CAKI-1 renal
[56] = tested on: HOP-62 NSCLC
[57] = tested on: KM20L2 colon

SMILES: CCOC(=O)c1oc2c(OC)cc(Cl)c3c2c1CCC3
- TGI [1]: > 100 µM
- TGI [2]: > 100 µM
- TGI [3]: > 100 µM
- TGI [4]: > 100 µM
- TGI [5]: > 100 µM
- TGI [6]: > 100 µM
- TGI [7]: > 100 µM
- TGI [8]: > 100 µM
- TGI [9]: > 100 µM
- TGI [10]: 63.8 µM
- TGI [11]: 65.1 µM
- TGI [12]: > 100 µM
- TGI [13]: > 100 µM
- TGI [14]: 73.3 µM
- TGI [15]: > 100 µM
- TGI [16]: > 100 µM
- TGI [17]: > 100 µM
- TGI [18]: > 100 µM
- TGI [19]: > 100 µM
- TGI [20]: > 100 µM
- TGI [21]: > 100 µM
- TGI [22]: > 100 µM
- TGI [23]: > 100 µM
- TGI [24]: 79.3 µM
- TGI [25]: > 100 µM
- TGI [26]: 97.6 µM
- TGI [27]: > 100 µM
- TGI [28]: > 100 µM
- TGI [29]: > 100 µM
- TGI [30]: > 100 µM
- TGI [31]: > 100 µM
- TGI [32]: 80.6 µM
- TGI [33]: > 100 µM
- TGI [34]: > 100 µM
- TGI [35]: 76.5 µM
- TGI [36]: > 100 µM
- TGI [37]: > 100 µM
- TGI [38]: > 100 µM
- TGI [39]: > 100 µM
- TGI [40]: 28.3 µM
- TGI [41]: > 100 µM
- TGI [42]: 65.3 µM
- TGI [43]: > 100 µM
- TGI [44]: > 100 µM
- TGI [45]: > 100 µM
- TGI [46]: > 100 µM
- TGI [47]: > 100 µM
- TGI [48]: > 100 µM
- TGI [49]: > 100 µM
- TGI [50]: > 100 µM
- TGI [51]: > 100 µM
- TGI [52]: > 100 µM
- TGI [53]: > 100 µM
- TGI [54]: > 100 µM

SMILES: CCOC(=O)Cn1c(=O)n(C)c(=O)c2[nH]cnc21
- TGI [1]: > 100 µM
- TGI [3]: > 100 µM
- TGI [4]: > 100 µM
- TGI [5]: > 100 µM
- TGI [6]: > 100 µM
- TGI [7]: > 100 µM
- TGI [8]: > 100 µM
- TGI [9]: > 100 µM
- TGI [10]: > 100 µM
- TGI [11]: > 100 µM
- TGI [12]: > 100 µM
- TGI [13]: > 100 µM
- TGI [15]: > 100 µM
- TGI [18]: > 100 µM
- TGI [19]: > 100 µM
- TGI [20]: > 100 µM
- TGI [21]: > 100 µM
- TGI [22]: > 100 µM
- TGI [23]: > 100 µM
- TGI [24]: > 100 µM
- TGI [25]: > 100 µM
- TGI [26]: > 100 µM
- TGI [27]: > 100 µM
- TGI [28]: > 100 µM
- TGI [29]: > 100 µM
- TGI [30]: > 100 µM
- TGI [31]: > 100 µM
- TGI [32]: > 100 µM
- TGI [34]: > 100 µM
- TGI [35]: > 100 µM
- TGI [36]: > 100 µM
- TGI [37]: > 100 µM
- TGI [55]: > 100 µM
- TGI [39]: > 100 µM
- TGI [40]: > 100 µM
- TGI [43]: > 100 µM
- TGI [44]: > 100 µM
- TGI [45]: > 100 µM
- TGI [56]: > 100 µM
- TGI [46]: > 100 µM
- TGI [47]: > 100 µM
- TGI [49]: > 100 µM
- TGI [50]: > 100 µM
- TGI [51]: > 100 µM
- TGI [52]: > 100 µM
- TGI [53]: > 100 µM
- TGI [54]: > 100 µM

SMILES: CN(N=O)C(=O)N(N)CCCCC(NC(=O)OCc1ccccc1)C(=O)OCc1ccccc1 (centres undefined)
- TGI [1]: 46.3 µM
- TGI [2]: > 100 µM
- TGI [3]: 38.5 µM
- TGI [4]: > 100 µM
- TGI [5]: > 100 µM
- TGI [6]: 52.6 µM
- TGI [7]: > 100 µM
- TGI [8]: 34.2 µM
- TGI [9]: > 100 µM
- TGI [10]: 34.5 µM
- TGI [11]: 33.8 µM
- TGI [12]: 66.5 µM
- TGI [13]: 85.9 µM
- TGI [14]: 96.2 µM
- TGI [15]: 38.8 µM
- TGI [57]: > 100 µM
- TGI [16]: > 100 µM
- TGI [17]: 51.7 µM
- TGI [18]: > 100 µM
- TGI [19]: > 100 µM
- TGI [20]: > 100 µM
- TGI [21]: > 100 µM
- TGI [22]: 70.7 µM
- TGI [23]: > 100 µM
- TGI [24]: > 100 µM
- TGI [25]: > 100 µM
- TGI [26]: > 100 µM
- TGI [27]: > 100 µM
- TGI [28]: > 100 µM
- TGI [30]: > 100 µM
- TGI [31]: > 100 µM
- TGI [32]: 32.2 µM
- TGI [33]: 63.4 µM
- TGI [34]: 44.7 µM
- TGI [35]: 62.8 µM
- TGI [36]: > 100 µM
- TGI [37]: > 100 µM
- TGI [55]: 72.3 µM
- TGI [38]: 16.2 µM
- TGI [39]: > 100 µM
- TGI [40]: 57 µM
- TGI [41]: > 100 µM
- TGI [42]: 51.6 µM
- TGI [43]: 45.6 µM
- TGI [44]: > 100 µM
- TGI [45]: 95.5 µM
- TGI [56]: 34.2 µM
- TGI [46]: > 100 µM
- TGI [47]: > 100 µM
- TGI [48]: 45.8 µM
- TGI [50]: 35.2 µM
- TGI [51]: > 100 µM
- TGI [52]: > 100 µM
- TGI [53]: > 100 µM
- TGI [54]: 24.9 µM

SMILES: COc1cc(Br)c(CC2NCCc3cc(OC)c(OC)cc32)cc1OC (centres undefined)
- TGI [1]: > 100 µM
- TGI [2]: > 100 µM
- TGI [3]: > 100 µM
- TGI [5]: > 100 µM
- TGI [6]: > 100 µM
- TGI [7]: > 100 µM
- TGI [8]: > 100 µM
- TGI [9]: > 100 µM
- TGI [10]: > 100 µM
- TGI [11]: > 100 µM
- TGI [12]: > 100 µM
- TGI [13]: > 100 µM
- TGI [14]: > 100 µM
- TGI [15]: > 100 µM
- TGI [57]: > 100 µM
- TGI [16]: > 100 µM
- TGI [17]: > 100 µM
- TGI [20]: > 100 µM
- TGI [21]: > 100 µM
- TGI [22]: > 100 µM
- TGI [23]: > 100 µM
- TGI [24]: > 100 µM
- TGI [25]: > 100 µM
- TGI [26]: > 100 µM
- TGI [27]: > 100 µM
- TGI [28]: > 100 µM
- TGI [29]: > 100 µM
- TGI [30]: > 100 µM
- TGI [31]: > 100 µM
- TGI [32]: > 100 µM
- TGI [33]: > 100 µM
- TGI [34]: > 100 µM
- TGI [35]: > 100 µM
- TGI [36]: > 100 µM
- TGI [37]: > 100 µM
- TGI [55]: > 100 µM
- TGI [38]: > 100 µM
- TGI [39]: > 100 µM
- TGI [40]: > 100 µM
- TGI [41]: > 100 µM
- TGI [43]: > 100 µM
- TGI [44]: > 100 µM
- TGI [45]: > 100 µM
- TGI [56]: > 100 µM
- TGI [47]: > 100 µM
- TGI [49]: > 100 µM
- TGI [51]: > 100 µM
- TGI [53]: > 100 µM
- TGI [54]: > 100 µM

SMILES: CN=C(NC#N)N(Cc1ccccc1)Cc1ccccc1
- TGI [1]: > 100 µM
- TGI [2]: > 100 µM
- TGI [3]: > 100 µM
- TGI [5]: > 100 µM
- TGI [6]: > 100 µM
- TGI [7]: > 100 µM
- TGI [8]: > 100 µM
- TGI [9]: > 100 µM
- TGI [10]: > 100 µM
- TGI [11]: > 100 µM
- TGI [12]: > 100 µM
- TGI [13]: > 100 µM
- TGI [14]: > 100 µM
- TGI [15]: > 100 µM
- TGI [57]: > 100 µM
- TGI [16]: > 100 µM
- TGI [17]: > 100 µM
- TGI [18]: > 100 µM
- TGI [19]: > 100 µM
- TGI [21]: > 100 µM
- TGI [22]: > 100 µM
- TGI [23]: > 100 µM
- TGI [24]: > 100 µM
- TGI [25]: > 100 µM
- TGI [26]: > 100 µM
- TGI [27]: > 100 µM
- TGI [28]: > 100 µM
- TGI [29]: > 100 µM
- TGI [30]: > 100 µM
- TGI [31]: > 100 µM
- TGI [32]: > 100 µM
- TGI [33]: > 100 µM
- TGI [34]: > 100 µM
- TGI [35]: > 100 µM
- TGI [36]: > 100 µM
- TGI [37]: > 100 µM
- TGI [55]: > 100 µM
- TGI [38]: > 100 µM
- TGI [39]: > 100 µM
- TGI [40]: > 100 µM
- TGI [41]: > 100 µM
- TGI [43]: > 100 µM
- TGI [44]: > 100 µM
- TGI [45]: > 100 µM
- TGI [56]: > 100 µM
- TGI [46]: > 100 µM
- TGI [47]: > 100 µM
- TGI [48]: > 100 µM
- TGI [49]: > 100 µM
- TGI [50]: > 100 µM
- TGI [51]: > 100 µM
- TGI [52]: > 100 µM
- TGI [53]: > 100 µM
- TGI [54]: > 100 µM
